# According to patent US20050009840A1 (SUGEN, INC., priority 2003, published 2005):
# Molecular target: T1, HGFR (Homo sapiens, UniProt P08581)
# T1 construct: purchased Upstate 14-526
# Experiment: HGFR continuous-coupled spectrophotometric assay
# Type: biochemical
# Details: at 1 pM; Table 6, library procedure 41; read-out: % Inhibition (percent c-MET inhibition)
# T1 sequence (P08581 974-1390 limits assumed): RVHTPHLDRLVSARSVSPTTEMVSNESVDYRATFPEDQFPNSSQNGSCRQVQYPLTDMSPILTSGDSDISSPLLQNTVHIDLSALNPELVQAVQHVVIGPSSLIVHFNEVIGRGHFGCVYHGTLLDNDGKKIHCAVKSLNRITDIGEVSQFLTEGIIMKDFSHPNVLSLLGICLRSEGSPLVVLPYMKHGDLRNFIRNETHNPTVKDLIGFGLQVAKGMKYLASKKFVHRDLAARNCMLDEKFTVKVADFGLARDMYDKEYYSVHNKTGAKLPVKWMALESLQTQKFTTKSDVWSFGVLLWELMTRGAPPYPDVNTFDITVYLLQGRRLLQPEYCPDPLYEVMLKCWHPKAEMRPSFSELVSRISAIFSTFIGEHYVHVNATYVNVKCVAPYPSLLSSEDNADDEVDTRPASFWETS
row,SMILES,inhibition at 1 pM [%]
1,Nc1ncc(C(=O)NCc2c(F)cccc2F)cc1OCc1c(Cl)cccc1Cl [Example L-279],32
2,Nc1ncc(C(=O)N2CCN(CC(=O)Nc3ccccn3)CC2)cc1OCc1c(Cl)cccc1Cl [Example L-280],56
3,CCS(=O)(=O)N1CCN(C(=O)c2cnc(N)c(OCc3c(Cl)cccc3Cl)c2)CC1 [Example L-282],22
4,Nc1ncc(C(=O)N2CCC3(CCNC3=O)CC2)cc1OCc1c(Cl)cccc1Cl [Example L-284],27
5,Nc1ncc(C(=O)N2CCCC(C(=O)N3CCOCC3)C2)cc1OCc1c(Cl)cccc1Cl [Example L-287],21
6,CC(C)(O)c1ccc(CNC(=O)c2cnc(N)c(OCc3c(Cl)cccc3Cl)c2)cc1 [Example L-289],24
7,Nc1ncc(C(=O)N2CCCC2c2ccncc2)cc1OCc1c(Cl)cccc1Cl [Example L-290],19
8,Nc1ncc(C(=O)NCCc2nc3ccccc3s2)cc1OCc1c(Cl)cccc1Cl [Example L-291],26
9,Nc1ncc(C(=O)NCC2=CSC3=NCCN23)cc1OCc1c(Cl)cccc1Cl [Example L-292],99
10,Cc1cc2cc(CNC(=O)c3cnc(N)c(OCc4c(Cl)cccc4Cl)c3)ccc2[nH]1 [Example L-294],20
11,CN(C)C(CNC(=O)c1cnc(N)c(OCc2c(Cl)cccc2Cl)c1)c1cccnc1 [Example L-295],18
12,Nc1ncc(C(=O)NCCC2CCOCC2)cc1OCc1c(Cl)cccc1Cl [Example L-298],31
13,Nc1ncc(C(=O)NC(CO)c2cccnc2)cc1OCc1c(Cl)cccc1Cl [Example L-300],22
14,Nc1ncc(C(=O)N2CCNC(=O)C2)cc1OCc1c(Cl)cccc1Cl [Example L-307],22
15,Nc1ncc(C(=O)NCc2ccc[nH]c2=O)cc1OCc1c(Cl)cccc1Cl [Example L-310],16
16,Cc1ccc2c(c1)C(NC(=O)c1cnc(N)c(OCc3c(Cl)cccc3Cl)c1)CCO2 [Example L-311],17
17,CCN1CCCC(NC(=O)c2cnc(N)c(OCc3c(Cl)cccc3Cl)c2)C1 [Example L-312],19
18,Nc1ncc(C(=O)N2CCC(COCc3ccccc3F)CC2)cc1OCc1c(Cl)cccc1Cl [Example L-313],10
19,Nc1ncc(C(=O)N2CCC(Cc3cnccn3)CC2)cc1OCc1c(Cl)cccc1Cl [Example L-315],72
20,Nc1ncc(C(=O)N2CCC3(CC2)CC(N2CCC(O)CC2)CO3)cc1OCc1c(Cl)cccc1Cl [Example L-320],28
21,Nc1ncc(C(=O)N2CCCC(Cc3ncccn3)C2)cc1OCc1c(Cl)cccc1Cl [Example L-324],25
22,Nc1ncc(C(=O)N2CCc3nnc(CCN4CCOCC4)n3CC2)cc1OCc1c(Cl)cccc1Cl [Example L-328],27
23,Nc1ncc(C(=O)NC2COC3(CCN(c4ncccn4)CC3)C2)cc1OCc1c(Cl)cccc1Cl [Example L-332],21
24,CCCN(CCO)C1CCCN(C(=O)c2cnc(N)c(OCc3c(Cl)cccc3Cl)c2)CC1 [Example L-334],17
25,Nc1ncc(C(=O)N2CCCC(N3CCOCC3)CC2)cc1OCc1c(Cl)cccc1Cl [Example L-335],18
26,Nc1ncc(C(=O)N2CCC(O)(CN3CCCC3=O)C2)cc1OCc1c(Cl)cccc1Cl [Example L-337],20
27,Nc1ncc(C(=O)N2CCCC(N3CCC(CO)CC3)CC2)cc1OCc1c(Cl)cccc1Cl [Example L-341],20
28,CCc1ccc(COCC2CCN(C(=O)c3cnc(N)c(OCc4c(Cl)cccc4Cl)c3)CC2)nc1 [Example L-344],41
29,Cc1ccn2cc(CNC(=O)c3cnc(N)c(OCc4c(Cl)cccc4Cl)c3)nc2n1 [Example L-345],45
30,CC(C)CNC(=O)c1ccc(Cl)c(CNC(=O)c2cnc(N)c(OCc3c(Cl)cccc3Cl)c2)c1 [Example L-352],47

# Further lines, results first:
row,inhibition at 1 pM [%],SMILES
1,26,Nc1ncc(C(=O)N2CCN(Cc3cccc4ccccc34)CC2)cc1OCc1c(Cl)cccc1Cl [Example L-281]
2,26,Nc1ncc(C(=O)N2CCC(N3CCCCC3=O)CC2)cc1OCc1c(Cl)cccc1Cl [Example L-283]
3,31,Nc1ncc(C(=O)N2CCNC(=O)CC2)cc1OCc1c(Cl)cccc1Cl [Example L-285]
4,47,Nc1ncc(C(=O)N2CCCC(C(=O)N3CCCC3)C2)cc1OCc1c(Cl)cccc1Cl [Example L-286]
5,20,COCCNC(=O)C1CCCN(C(=O)c2cnc(N)c(OCc3c(Cl)cccc3Cl)c2)C1 [Example L-288]
6,16,Nc1ncc(C(=O)NC2CCCNC2=O)cc1OCc1c(Cl)cccc1Cl [Example L-293]
7,23,CS(=O)(=O)C1CCN(C(=O)c2cnc(N)c(OCc3c(Cl)cccc3Cl)c2)C1 [Example L-296]
8,26,CN(CCS(C)(=O)=O)C(=O)c1cnc(N)c(OCc2c(Cl)cccc2Cl)c1 [Example L-297]
9,25,CS(=O)(=O)CCN1CCN(C(=O)c2cnc(N)c(OCc3c(Cl)cccc3Cl)c2)CC1 [Example L-299]
10,24,Nc1ncc(C(=O)N2CCN(CC(=O)N3CCCCC3)CC2)cc1OCc1c(Cl)cccc1Cl [Example L-301]
11,41,Nc1ncc(C(=O)N2CCC(Cc3ccc(F)cc3)CC2)cc1OCc1c(Cl)cccc1Cl [Example L-302]
12,24,Nc1ncc(C(=O)NCc2ncccc2O)cc1OCc1c(Cl)cccc1Cl [Example L-303]
13,18,CCCCOc1ccc(CNC(=O)c2cnc(N)c(OCc3c(Cl)cccc3Cl)c2)cc1 [Example L-304]
14,26,Nc1ncc(C(=O)NCc2ccc(OC(F)F)cc2)cc1OCc1c(Cl)cccc1Cl [Example L-305]
15,22,COc1ccc(C(CCO)NC(=O)c2cnc(N)c(OCc3c(Cl)cccc3Cl)c2)cc1 [Example L-306]
16,33,Nc1ncc(C(=O)NCc2c(F)cccc2C(F)(F)F)cc1OCc1c(Cl)cccc1Cl [Example L-308]
17,16,Nc1ncc(C(=O)N2CCCC(F)(F)C2)cc1OCc1c(Cl)cccc1Cl [Example L-309]
18,16,Nc1ncc(C(=O)NCCC2CCC(=O)N2CCc2ccc(O)cc2)cc1OCc1c(Cl)cccc1Cl [Example L-314]
19,11,Nc1ncc(C(=O)N2CCC(Cc3cccc(CO)c3)CC2)cc1OCc1c(Cl)cccc1Cl [Example L-316]
20,12,NC(=O)c1ccc(CC2CCN(C(=O)c3cnc(N)c(OCc4c(Cl)cccc4Cl)c3)CC2)cc1 [Example L-317]
21,17,Nc1ncc(C(=O)N2CCC3(CC2)CC(N2CCNC(=O)C2)CO3)cc1OCc1c(Cl)cccc1Cl [Example L-318]
22,71,CCN(CC)CC1(O)CCN(C(=O)c2cnc(N)c(OCc3c(Cl)cccc3Cl)c2)CC1 [Example L-319]

row,inhibition at 1 pM [%],SMILES
1,25,CN(CCC1CCC(=O)N1CC(F)(F)F)C(=O)c1cnc(N)c(OCc2c(Cl)cccc2Cl)c1 [Example L-321]
2,25,Nc1ncc(C(=O)N2CCC(O)(CCc3ccncc3)CC2)cc1OCc1c(Cl)cccc1Cl [Example L-322]
3,26,Nc1ncc(C(=O)NCc2noc(C(=O)N3CCC(CO)CC3)n2)cc1OCc1c(Cl)cccc1Cl [Example L-323]
4,26,Nc1ncc(C(=O)N2CCC3(CC2)CC3C(=O)N2CCCCC2)cc1OCc1c(Cl)cccc1Cl [Example L-325]
5,3,Cc1noc([C@H]2CC[C@H](CNC(=O)c3cnc(N)c(OCc4c(Cl)cccc4Cl)c3)CC2)n1 [Example L-326]
6,26,Nc1ncc(C(=O)NCc2noc(C(=O)N3CC[C@H](O)C3)n2)cc1OCc1c(Cl)cccc1Cl [Example L-327]
7,30,C=C(Cl)/C(=C/O)COc1cc(C(=O)NC2COC3(CCN(Cc4[nH]cnc4C)CC3)C2)cnc1N [Example L-329]
8,74,CCC(CC)CN1CCC2(CC1)CC(NC(=O)c1cnc(N)c(OCc3c(Cl)cccc3Cl)c1)CO2 [Example L-330]
9,23,COCC1CN(CC(N)=O)CCN(C(=O)c2cnc(N)c(OCc3c(Cl)cccc3Cl)c2)C1 [Example L-331]
10,23,Cc1nc(CCNC(=O)c2cnc(N)c(OCc3c(Cl)cccc3Cl)c2)cs1 [Example L-333]
11,20,Nc1ncc(C(=O)NC2COC3(CCN(Cc4ccncc4)CC3)C2)cc1OCc1c(Cl)cccc1Cl [Example L-336]
12,21,CC(C)CCNC(=O)C1CC12CCN(C(=O)c1cnc(N)c(OCc3c(Cl)cccc3Cl)c1)CC2 [Example L-338]
13,18,CN(CCc1ccccn1)CC1(O)CCN(C(=O)c2cnc(N)c(OCc3c(Cl)cccc3Cl)c2)C1 [Example L-339]
14,19,Cc1cc(CCC2CC3(CCN(C(=O)c4cnc(N)c(OCc5c(Cl)cccc5Cl)c4)CC3)CO2)no1 [Example L-340]
15,36,Nc1ncc(C(=O)N2CCCC(O)(COc3cccc(F)c3)C2)cc1OCc1c(Cl)cccc1Cl [Example L-342]
16,37,Nc1ncc(C(=O)N2CCC3(CC2)COC(CCc2ccnnc2)C3)cc1OCc1c(Cl)cccc1Cl [Example L-343]
17,31,Nc1ncc(C(=O)N2CCn3c(CO)nnc3C2)cc1OCc1c(Cl)cccc1Cl [Example L-346]
18,38,Cc1ccc2nc(CNC(=O)c3cnc(N)c(OCc4c(Cl)cccc4Cl)c3)cn2c1 [Example L-347]
19,35,Nc1ncc(C(=O)N2CCC(COc3cccc4cccnc34)C2)cc1OCc1c(Cl)cccc1Cl [Example L-348]
20,32,Nc1ncc(C(=O)N2CCC3(CC2)CC3C(=O)NCC2CC2)cc1OCc1c(Cl)cccc1Cl [Example L-349]
21,34,Nc1ncc(C(=O)N2CCC3(CC2)COC(CCc2cc(O)n[nH]2)C3)cc1OCc1c(Cl)cccc1Cl [Example L-350]
22,35,Cn1ccnc1SCC1(O)CCCN(C(=O)c2cnc(N)c(OCc3c(Cl)cccc3Cl)c2)CC1 [Example L-351]
